Data from US8183263B2 (priority 2007, dated 2012).

tested on: HCV replicon; assay: HCV replicon replication assay (NPT level by captured ELISA); assay type: cell-based; conditions: Hepatitis C virus, 72 h; Huh-7 HCV replicon-containing cells, three days incubation; read-out: Activity (inhibition of HCV replicon replication)
In short: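 Huh-7 cells carrying HCV subgenomic replicon (NS3–NS5B, neo reporter) treated 3 days at 37 °C with 6 concentrations from 10 to 0.03 micromolar in G418-free medium, equal DMSO across wells. Replication measured on day four as NPTII level by in-cell captured ELISA on fixed cells; interferon alpha as positive control.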

`CCCCCCCC(C)Oc1ccc(Nc2nc(-c3cccnc3)c(F)s2)cc1C(F)(F)F` (stereo not drawn) [Cmp 218, 5-fluoro-N-(4-(nonan-2-yloxy)-3-(trifluoromethyl)phenyl)-4-(pyridin-3-yl)thiazol-2-amine] and `CCCCCCCCc1ccc(Nc2nc(-c3cccnc3)c(F)s2)cc1C(F)(F)F` [Cmp 35, 5-fluoro-N-(4-octyl-3-(trifluoromethyl)phenyl)-4-(pyridin-3-yl)thiazol-2-amine] cannot be ordered by EC50: < 1000 nM for the first, < 1000 nM for the second.

`CCCCCCc1ccc(Nc2nc(-c3cccnc3)c(F)s2)cc1C(F)(F)F` [Cmp 112] and `CCCCCOCCCc1ccc(Nc2nc(-c3cccnc3)c(F)s2)cc1C(F)(F)F` [Cmp 220, 5-fluoro-N-(4-(3-(pentyloxy)propyl)-3-(trifluoromethyl)phenyl)-4-(pyridin-3-yl)thiazol-2-amine] cannot be ordered by EC50: < 1000 nM for the first, < 1000 nM for the second.

`CCCCCCCCc1cc2ccc(Nc3nc(-c4ccc(C)nc4)cs3)cc2o1` [Cmp 115, 4-(6-methylpyridin-3-yl)-N-(2-octylbenzofuran-6-yl)thiazol-2-amine] and `CCCCCCCCc1ccc(Nc2nc(-c3ccc(F)nc3)cs2)cc1C(F)(F)F` [Cmp 168, 4-(6-fluoropyridin-3-yl)-N-(4-octyl-3-(trifluoromethyl)phenyl)thiazol-2-amine] cannot be ordered by EC50: < 1000 nM for the first, < 1000 nM for the second.

`Fc1sc(Nc2ccc(CCCCCOC3CCCC3)c(C(F)(F)F)c2)nc1-c1cccnc1` [Cmp 230, N-(4-(5-(cyclopentyloxy)pentyl)-3-(trifluoromethyl)phenyl)-5-fluoro-4-(pyridin-3-yl)thiazol-2-amine] and `Cc1cccc(OCCCc2ccc(Nc3nc(-c4cccnc4)c(F)s3)cc2C(F)(F)F)c1` [Cmp 92, 5-fluoro-4-(pyridin-3-yl)-N-(4-(3-(m-tolyloxy)propyl)-3-(trifluoromethyl)phenyl)thiazol-2-amine] cannot be ordered by EC50: < 1000 nM for the first, < 1000 nM for the second.

`CCCCCCCCc1ccc(Nc2nc(-c3ccc4nncn4c3)cs2)cc1C(F)(F)F` [Cmp 178, 4-([1,2,4]triazolo[4,3-a]pyridin-6-yl)-N-(4-octyl-3-(trifluoromethyl)phenyl)thiazol-2-amine] and `Cc1ccc(CCCCCc2ccc(Nc3nc(-c4cccnc4)cs3)cc2C(F)(F)F)cc1` [Cmp 73, 4-(pyridin-3-yl)-N-(4-(5-p-tolylpentyl)-3-(trifluoromethyl)phenyl)thiazol-2-amine] cannot be ordered by EC50: < 1000 nM for the first, < 1000 nM for the second.

First: FC(F)(F)c1ccc(Nc2nc(-c3cccnc3)cs2)cc1Oc1ccccc1 [Cmp 102]
Second: FC(F)(F)c1cc(Nc2nc(-c3cccnc3)cs2)ccc1OCCCCc1ccc(Cl)cc1 [Cmp 23, N-(4-(4-(4-chlorophenyl)butoxy)-3-(trifluoromethyl)phenyl)-4-(pyridin-3-yl)thiazol-2-amine]
The EC50 of the first is higher: 1000 to 10000 nM for the first, < 1000 nM for the second. The second is the more potent here.

`CCCCCCCCOc1cc(Nc2nc(-c3cccnc3)c(F)s2)ccc1C` [Cmp 28, 5-fluoro-N-(4-methyl-3-(octyloxy)phenyl)-4-(pyridin-3-yl)thiazol-2-amine] and `CCCCCOc1cc(Nc2nc(-c3cccnc3)c(F)s2)ccc1C` [Cmp 29] cannot be ordered by EC50: < 1000 nM for the first, < 1000 nM for the second.

`CCCCCCCCc1oc2ccc(Nc3nc(-c4cccnc4)c(F)s3)cc2c1Cl` [Cmp 189, N-(3-chloro-2-octylbenzofuran-5-yl)-5-fluoro-4-(pyridin-3-yl)thiazol-2-amine] and `CCCCCCCCOc1ccc(Nc2ncc(Oc3cccnc3)s2)cc1C(F)(F)F` [Cmp 144, N-(4-(octyloxy)-3-(trifluoromethyl)phenyl)-5-(pyridin-3-yloxy)thiazol-2-amine] cannot be ordered by EC50: < 1000 nM for the first, < 1000 nM for the second.

`Fc1ccc(-c2nc(Nc3ccc(OCCCC4CCCC4)c(C(F)(F)F)c3)sc2F)cn1` [Cmp 173, N-(4-(3-cyclopentylpropoxy)-3-(trifluoromethyl)phenyl)-5-fluoro-4-(6-fluoropyridin-3-yl)thiazol-2-amine] and `N#Cc1ccc(Oc2ccc(Nc3nc(-c4cccnc4)c(F)s3)cc2C(F)(F)F)cc1` [Cmp 99, 4-(4-(5-fluoro-4-(pyridin-3-yl)thiazol-2-ylamino)-2-(trifluoromethyl)phenoxy)benzonitrile] cannot be ordered by EC50: < 1000 nM for the first, < 1000 nM for the second.
